Values of other authors in paper PMC6611711 (Molecular cancer therapeutics, 2018).

Experiments:
[1] = system: panel of cancer cell lines; settings: inhibition of choline kinase alpha (CKα)
tumor xenograft = settings: mice

## CN(C)c1cc[n+](CCCCCCCCCCCC[n+]2ccc(N(C)C)cc2)cc1.[Br-].[Br-] [ICL-CCIC-0019]
[1]
  Growth of a panel of cancer cell lines: suppressed growth of a panel of cancer cell lines
Tumor xenograft
  Tumor xenograft growth: inhibited tumor xenograft growth in mice
